The values that follow come from patent US20260042762A1 (Kymera Therapeutics, Inc., priority 2018, published 2026).

Structures can show the parent of a compound that is named as a salt.

The assay addresses T1, MerTK (Homo sapiens, UniProt Q12866).
T1 construct: endogenous in cells; host or cells: Jurkat cells
T1 sequence (Q12866 21-999): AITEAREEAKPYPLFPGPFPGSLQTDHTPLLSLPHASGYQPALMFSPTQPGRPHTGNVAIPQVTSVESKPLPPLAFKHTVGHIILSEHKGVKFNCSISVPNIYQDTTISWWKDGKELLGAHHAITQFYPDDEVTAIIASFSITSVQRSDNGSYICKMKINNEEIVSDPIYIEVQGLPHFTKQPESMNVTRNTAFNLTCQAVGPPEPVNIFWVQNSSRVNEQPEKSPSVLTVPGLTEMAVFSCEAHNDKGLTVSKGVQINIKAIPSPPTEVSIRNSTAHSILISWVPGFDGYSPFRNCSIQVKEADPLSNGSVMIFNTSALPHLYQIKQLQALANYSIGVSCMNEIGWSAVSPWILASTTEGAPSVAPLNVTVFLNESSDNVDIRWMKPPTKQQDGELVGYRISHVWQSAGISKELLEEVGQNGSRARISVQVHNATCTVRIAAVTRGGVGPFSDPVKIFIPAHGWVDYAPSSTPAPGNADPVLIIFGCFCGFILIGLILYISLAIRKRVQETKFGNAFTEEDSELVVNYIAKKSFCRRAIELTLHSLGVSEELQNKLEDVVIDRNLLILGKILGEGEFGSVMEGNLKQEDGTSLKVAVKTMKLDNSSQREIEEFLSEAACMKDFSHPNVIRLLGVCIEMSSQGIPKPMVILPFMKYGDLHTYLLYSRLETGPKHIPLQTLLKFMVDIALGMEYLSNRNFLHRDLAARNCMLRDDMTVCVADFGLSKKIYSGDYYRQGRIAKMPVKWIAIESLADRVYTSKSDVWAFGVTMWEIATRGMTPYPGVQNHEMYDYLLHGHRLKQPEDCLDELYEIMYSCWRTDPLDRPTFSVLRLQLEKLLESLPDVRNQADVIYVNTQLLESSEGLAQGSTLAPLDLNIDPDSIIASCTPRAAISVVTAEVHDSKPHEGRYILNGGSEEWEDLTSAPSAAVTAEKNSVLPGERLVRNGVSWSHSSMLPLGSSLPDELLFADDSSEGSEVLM
As to the kind of experiment: MerTk degradation in Jurkat cells (Western blot). The format is cell-based. The conditions noted are these: Jurkat, 4 h, 0.001-1 μM, 4 hour-incubation at 37° C., read-out: Jurkat Max % MerTK Degradation. Summed up:
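MerTK degradation was read by near-infrared Western blot, normalized to actin, in BCA-quantified lysates of Jurkat cells exposed to 0.001-1 μM compound for 4 h at 37 °C.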
(In general: A western blot detects proteins with antibodies after separation by electrophoresis.)

On to `Cn1c(=O)n([C@H]2CCC(=O)NC2=O)c2ccc(CCCOCCOC3CCN(C[C@H]4CC[C@@H](c5cn([C@H]6CC[C@H](O)CC6)c6nc(NCCC(F)(F)F)ncc65)CC4)CC3)cc21` [I-171, 3-[3-methyl-2-oxo-5-(3-[2-[(1-[[cis-4-[7-[trans-4-hydroxycyclohexyl]-2-[(3,3,3-trifluoropropyl)amino]pyrrolo[2,3-d]pyrimidin-5-yl]cyclohexyl]methyl]piperidin-4-yl)oxy]ethoxy]propyl)-1,3-benzodiazol-1-y1]piperidine-2,6-dione], for which the Dmax was more than 50%.
For `Cn1c(=O)n([C@H]2CCC(=O)NC2=O)c2ccc(CCCOCCOCCN3CCN(C[C@H]4CC[C@@H](c5cn([C@H]6CC[C@H](O)CC6)c6nc(NCCC(F)(F)F)ncc65)CC4)CC3)cc21` [I-153, 3-[3-methyl-2-oxo-5-(3-[2-[2-(4-[[(1s,4s)-4-[7-[trans-4-hydroxycyclohexyl]-2-[(3,3,3-trifluoropropyl)amino]pyrrolo[2,3-d]pyrimidin-5-yl]cyclohexyl]methyl]piperazin-1-yl)ethoxy]ethoxy]propyl)-1,3-benzodiazol-1-yl]piperidine-2,6-dione] the value was more than 50%; for `Cc1ncsc1-c1ccc(CNC(=O)[C@@H]2C[C@@H](O)CN2C(=O)[C@@H](NC(=O)C2(F)CC2)C(C)(C)C)c(OCCOCCOCCOCCN2CCN(Cc3ccc(-c4cn([C@H]5CC[C@H](O)CC5)c5nc(NCCC(F)(F)F)ncc45)cc3)CC2)c1` [I-190], more than 50%; for `CCC[C@H](C)Nc1ncc2c(n1)n([C@H]1CC[C@H](O)CC1)cc2[C@H]1CC[C@H](CN2CCN(CCCOC3CCN(Cc4ccc5c(c4)n(C)c(=O)n5C4CCC(=O)NC4=O)CC3)CC2)CC1` (stereo partly drawn) [I-208, 3-[3-methyl-2-oxo-5-([4-[3-(4-[[trans-4-[2-[(2S)-pentan-2-ylamino]-7-[trans-4-hydroxycyclohexyl]pyrrolo[2,3-d]pyrimidin-5-yl]cyclohexyl]methyl]piperazin-1-yl)propoxy]piperidin-1-yl]methyl)-1,3-benzodiazol-1-yl]piperidine-2,6-dione], more than 50%.
With `N[C@H]1CCCC[C@H]1Nc1cc2nc[nH]c(=O)c2c(Nc2cccc3c2ccn3CCOCCOCCOCCOCCNc2cccc3c2C(=O)N(C2CCC(=O)NC2=O)C3=O)n1` (stereo partly drawn) [I-227] the figure was more than 50%; with `Cc1ncsc1-c1ccc(CNC(=O)[C@@H]2C[C@@H](O)CN2C(=O)[C@@H](NC(=O)COCCOCCOCCOCCN2CCN(Cc3ccc(-c4cn([C@H]5CC[C@H](O)CC5)c5nc(NCCC(F)(F)F)ncc45)cc3)CC2)C(C)(C)C)cc1` [I-173, (2S,4R)-1-[(2S)-3,3-dimethyl-2-(14-[4-[(4-[7-[(1r,4r)-4-hydroxycyclohexyl]-2-[(3,3,3-trifluoropropyl)amino]pyrrolo[2,3-d]pyrimidin-5-yl]phenyl)methyl]piperazin-1-yl]-3,6,9,12-tetraoxatetradecanamido)butanoyl]-4-hydroxy-N-[[4-(4-methyl-1,3-thiazol-5-yl)phenyl]methyl]pyrrolidine-2-carboxamide], 20 to 50%; with `Cn1c(=O)n(C2CCC(=O)NC2=O)c2ccc(CCCN3CCCC(N4CCN(Cc5ccc(-c6cn([C@H]7CC[C@H](O)CC7)c7nc(NCCC(F)(F)F)ncc67)cc5)CC4)C3)cc21` (stereo partly drawn) [I-118, 3-[3-methyl-2-oxo-5-[3-(3-[4-[(4-[7-[trans-4-hydroxycyclohexy1]-2-[(3,3,3-trifluoropropyl)amino]-7H-pyrrolo[2,3-d]pyrimidin-5-yl]phenyl)methyl]piperazin-1-y1]piperidin-1-y1)propyl]-2,3-dihydro-1H-1,3-benzodiazol-1-yl]piperidine-2,6-dione; formic acid], 20 to 50%.
With `O=C(c1ccc(CNCc2ccc(-c3ccc4c(cnn4CC4CC4)c3)cc2)cc1)N1CCC(C2CCN(Cc3ccc(-c4cn([C@H]5CC[C@H](O)CC5)c5nc(NCCC(F)(F)F)ncc45)cc3)CC2)CC1` [I-202, (4-(((4-(1-(cyclopropylmethyl)-1H-indazol-5-yl)benzyl)amino)methyl)phenyl)(1′-(4-(7-(trans-4-hydroxycyclohexyl)-2-((3,3,3-trifluoropropyl)amino)-7H-pyrrolo[2,3-d]pyrimidin-5-yl)benzyl)-[4,4′-bipiperidin]-1-yl)methanone; formic acid], the Dmax is less than 20%.
Regarding `O=C1CC[C@H](n2c3ccc(CCCOCCOCCN4CCN(Cc5ccc(-c6cn([C@H]7CC[C@H](O)CC7)c7nc(NCCC(F)(F)F)ncc67)cc5)CC4)cc3c3cccnc32)C(=O)N1` [I-125, 3-(6-[3-[2-(2-[4-[(4-[7-[trans-4-hydroxycyclohexyl]-2-[(3,3,3-trifluoropropyl)amino]-7H-pyrrolo[2,3-d]pyrimidin-5-yl]phenyl)methyl]piperazin-1-yl]ethoxy)ethoxy]propyl]-9H-pyrido[2,3-b]indol-9-y1)piperidine-2,6-dione], the Dmax is more than 50%.
With `Cc1ncsc1-c1ccc(CNC(=O)[C@@H]2C[C@@H](O)CN2C(=O)[C@@H](NC(=O)COCCOCCN2CCN(Cc3ccc(-c4cn([C@H]5CC[C@H](O)CC5)c5nc(NCCC(F)(F)F)ncc45)cc3)CC2)C(C)(C)C)cc1` [I-165, (2S,4R)-1-[(2S)-3,3-dimethyl-2-[2-[2-(2-[4-[(4-[7-[trans-4-hydroxycyclohexyl]-2-[(3,3,3-trifluoropropyl)amino]pyrrolo[2,3-d]pyrimidin-5-yl]phenyl)methyl]piperazin-1-yl]ethoxy)ethoxy]acetamido]butanoyl]-4-hydroxy-N-[[4-(4-methyl-1,3-thiazol-5-yl)phenyl]methyl]pyrrolidine-2-carboxamide] the figure was less than 20%; with `Cn1c(=O)n([C@H]2CCC(=O)NC2=O)c2ccc(CCCOCCCN3CCN(Cc4ccc(-c5cn([C@H]6CC[C@H](O)CC6)c6nc(NCC(F)F)ncc56)cc4)CC3)cc21` [I-100, 3-[5-[3-(3-[4-[(4-[2-[(2,2-difluoroethyl)amino]-7-[trans-4-hydroxycyclohexyl]-7H-pyrrolo[2,3-d]pyrimidin-5-yl]phenyl)methyl]piperazin-1-yl]propoxy)propyl]-3-methyl-2-oxo-2,3-dihydro-1H-1,3-benzodiazol-1-yl]piperidine-2,6-dione; formic acid], more than 50%.
With `Cn1c(=O)n([C@H]2CCC(=O)NC2=O)c2ccc(CCCOCCOCCOCCN3CCN(Cc4ccc(-c5cn([C@H]6CC[C@H](O)CC6)c6nc(NCCC(F)(F)F)ncc56)cc4)CC3)cc21` [I-55, 3-[3-methyl-2-oxo-5-(3-[2-[2-(2-[4-[(4-[7-[trans-4-hydroxycyclohexyl]-2-[(3,3,3-trifluoropropyl)amino]-7H-pyrrolo[2,3-d]pyrimidin-5-yl]phenyl)methyl]piperazin-1-yl]ethoxy)ethoxy]ethoxy]propyl)-2,3-dihydro-1H-1,3-benzodiazol-1-yl]piperidine-2,6-dione] the figure was more than 50%; with `O=C1CC[C@H](n2c3ccc(NCCOCCOCCNCc4ccc(-c5cn([C@H]6CC[C@H](O)CC6)c6nc(NCCC(F)(F)F)ncc56)cc4)cc3c3cccnc32)C(=O)N1` [I-99, 3-[6-[11-(4-[7-[trans-4-hydroxycyclohexyl]-2-[(3,3,3-trifluoropropyl)amino]-7H-pyrrolo[2,3-d]pyrimidin-5-yl]phenyl)-4,7-dioxa-1,10-diazaundecan-1-y1]-9H-pyrido[2,3-b]indol-9-yl]piperidine-2,6-dione; trihydrochloride], more than 50%; with `C[C@@H](CC(F)(F)F)Nc1ncc2c(-c3ccc(CN4CCN(C5CC(OCCc6ccc7c(c6)n(C)c(=O)n7C6CCC(=O)NC6=O)C5)CC4)cc3)cn([C@H]3CC[C@H](O)CC3)c2n1` (stereo partly drawn) [I-195, 3-[3-methyl-2-oxo-5-[2-(3-[4-[(4-[7-[trans-4-hydroxycyclohexy1]-2-[[(2S)-4,4,4-trifluorobutan-2-yl]amino]pyrrolo[2,3-d]pyrimidin-5-yl]phenyl)methyl]piperazin-1-yl]cyclobutoxy)ethyl]-1,3-benzodiazol-1-yl]piperidine-2,6-dione], 20 to 50%.
For `Cn1c(=O)n([C@H]2CCC(=O)NC2=O)c2ccc(CCOCCN3CC(N4CCN(Cc5ccc(-c6cn([C@H]7CC[C@H](O)CC7)c7nc(NCCC(F)(F)F)ncc67)cc5)CC4)C3)cc21` [I-129, 3-(3-methyl-2-oxo-5-[2-[2-(3-[4-[(4-[7-[trans-4-hydroxycyclohexy1]-2-[(3,3,3-trifluoropropyl)amino]-7H-pyrrolo[2,3-d]pyrimidin-5-y1]phenyl)methyl]piperazin-1-yl]azetidin-1-yl)ethoxy]ethyl]-2,3-dihydro-1H-1,3-benzodiazol-1-y1)piperidine-2,6-dione; formic acid] the value was more than 50%.
